Source: publication PMC8512147, “Multifunctional Small Molecules as Potential Anti-Alzheimer’s Disease Agents” (Molecules, 2021)

Experiments:
Aβ1–42 peptide [1] = molecular target: T1, Aβ1–42 peptide (Homo sapiens, UniProt P05067); assay: Inhibition of Cu^2+-induced Aβ1–42 aggregation, Thioflavin T fluorescence assay; type: biochemical; design: Amyloid-β peptide (1–42) was purchased from GeneCust; purchased GeneCust; settings: compounds 80 μM, with copper 40 μM; ThT fluorescence; mean of two independent measurements in duplicate; read-out: Inhibition of Aβ1–42 Aggregation (%) Cu-Induced Aβ Aggr.
Description: (§1) The studied compounds (1a–e) were tested in vitro to evaluate their activity as inhibitors of Aβ1-42 peptide aggregation, through the Thioflavin T (ThT) fluorescence assay. This method is based on the strong ability of the dye ThT to bind β-amyloid fibrils and oligomers through ionic and hydrophobic interactions, while its interaction with β-amyloid monomers is extremely weak. The intercalation of compounds in the β-sheet structure of amyloid protein may prevent fibrils aggregation and ThT binding, and it is evaluated by fluorimetry. The fluorescence emission measurements were performed after overnight incubation of the self-mediated or Cu^2+-induced Aβ fibril aggregates with the studied compounds.
(§2) The inhibition of β-amyloid (Aβ) aggregation was studied through the Th-T fluorescence assay, which was performed using a Varian Cary Eclipse fluorimeter at the following wavelengths: excitation (446 nm) and emission (485 nm). Amyloid-β peptide (1–42) was purchased from GeneCust as lyophilized powder stored at −20 °C.
(§3) The method used is based on thioflavin T (ThT) fluorescence emission, which depends on the interaction of this dye with Aβ fibrils. The assay is performed with the Aβ1–42 peptide sample, which was previously prepared by solubilization of its lyophilized powder in 1,1,1,3,3,3–hexafluoro-2-propanol (HFIP), an organic solvent useful to solubilize and monomerize the β-sheets protein aggregates. After 24 h, the solution was divided into Eppendorf tubes kept in ice, and then, HFIP was left to evaporate overnight (T = 25 °C). The resultant films were stored in the freezer. […] Compounds were dissolved in MeOH (1 mg/mL) and diluted with phosphate buffer to reach a ligand stock solution of 480 μM. Two different types of experiments were prepared in a final volume of 60 μL: control ligand assays (Aβ1–42 aggregation in the absence of inhibitor) and ligand assays (effect of ligand on Aβ1–42 aggregation). For each experiment, a blank sample without Aβ1–42 was used to monitor the effect of the compounds in fluorescence. To study the inhibition of aggregation in the presence of Cu^2+, which is known to promote it, an intermediate stock solution of CuCl2 in phosphate buffer (240 µM) was prepared. Then, it was aliquoted to obtain a final concentration of 40 µM in the samples. All samples were incubated in a water bath for 24 h at 37 °C. Then, 180 µL of ThT (5 µM) in glycine-NaOH buffer (50 mM, pH = 8.5) is added to each solution and 200 µL of it is placed in a 96-well plate (BD Falcon) to be read with the fluorimeter. After 5 min of incubation with ThT, fluorescence was measured at 446 nm (ʎ excitation) and 485 nm (ʎ emission).

Aβ1–42 peptide [2] = molecular target: T1, Aβ1–42 peptide; assay: Inhibition of self-mediated Aβ1–42 aggregation, Thioflavin T fluorescence assay; type: biochemical; design: Amyloid-β peptide (1–42) was purchased from GeneCust; purchased GeneCust; settings: compounds 80 μM, without copper; ThT fluorescence; mean of two independent measurements in duplicate; read-out: Inhibition of Aβ1–42 Aggregation (%) Self-Aβ Aggr.
Description: as §1, §2, §3

T1 sequence (P05067 672-713): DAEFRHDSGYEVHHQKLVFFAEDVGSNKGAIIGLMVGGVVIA

inhibition at 80 µM (Aβ1–42 peptide [1]) [%]	inhibition at 80 µM (Aβ1–42 peptide [2]) [%]	SMILES
79.6	42.6	COc1cc(/C=C/C(=O)NOCc2ccccc2OC)ccc1O [Compound 1a, (E)-3-(4-hydroxy-3-methoxyphenyl)-N-((2-methoxybenzyl)oxy)acrylamide]
76.1	34.1	COc1cc(/C=C/C(=O)NOCc2cccc(Cl)c2)ccc1O [Compound 1d, (E)-N-((3-chlorobenzyl)oxy)-3-(4-hydroxy-3-methoxyphenyl)acrylamide]
